Source: ChEMBL document CHEMBL1147214, “Tetraplex DNA specific ligands based on the fluorenone-carboxamide scaffold” (Bioorg Med Chem Lett, 2007)

Experiments:
Salmonidae [1] = assay: Effect on Salmon testes DNA stabilization assessed as thermal denaturation at 100 uM; assay type: functional
Salmonidae [2] = assay: Binding affinity to Salmon testes DNA

For `O=C(NCCOCCO)c1cccc2c1-c1ccccc1C2=O`, which ΔTm (Salmonidae [1]) is on record?
The ΔTm was 0.2 °C.

How did the ΔTm (Salmonidae [1]) turn out when `CC(O)CNC(=O)c1cccc2c1-c1ccccc1C2=O` (stereo unspecified) was run?
The ΔTm was 2.1 °C.

What does the source list for `CCN(CC)CCNC(=O)c1cccc2c1-c1ccccc1C2=O`?
ΔTm (Salmonidae [1]): 2.1 °C; Ka (Salmonidae [2]): 7.8 10^4/M

`O=C(NCCCN1CCOCC1)c1cccc2c1-c1ccccc1C2=O` was tested. Which ΔTm (Salmonidae [1]) did it give?
The ΔTm was -0.8 °C.

What about the Ka (Salmonidae [2]) of the same compound?
The Ka was 2.3 10^4/M.

Which results are given for `CN(C)CCNC(=O)c1cccc2c1-c1ccccc1C2=O`?
ΔTm (Salmonidae [1]): 0.2 °C; Ka (Salmonidae [2]): 3.3 10^3/M

`CN(C)CCCNC(=O)c1cccc2c1-c1ccccc1C2=O` was tested. Which ΔTm (Salmonidae [1]) did it give?
Its ΔTm is 2.1 °C.

And the Ka (Salmonidae [2])?
Its Ka is 3.1 10^4/M.

`O=C(NCCCO)c1cccc2c1-c1ccccc1C2=O` was tested. Which ΔTm (Salmonidae [1]) did it give?
Its ΔTm is 3.1 °C.

What about the Ka (Salmonidae [2]) of the same compound?
The Ka was 8.4 10^3/M.

Which ΔTm (Salmonidae [1]) does the source give for `O=C(NCCCCO)c1cccc2c1-c1ccccc1C2=O` here?
The ΔTm was -0.8 °C.

How did the ΔTm (Salmonidae [1]) turn out when `O=C(NCCN1CCOCC1)c1cccc2c1-c1ccccc1C2=O` was run?
The ΔTm was 1.2 °C.

And the Ka (Salmonidae [2])?
The Ka was 1.6 10^5/M.

How did the ΔTm (Salmonidae [1]) turn out when `O=C(NCCO)c1cccc2c1-c1ccccc1C2=O` was run?
The ΔTm was 1.9 °C.
